In series [1] the test system is liver glycogen deposition. The experiment in a line: Liver glycogen deposition. It counts as in vivo, Male Sprague Dawley rats. To be noted: 3 mg/kg intratracheal, 2 doses 24 hrs apart, adrenalectomized rats. The protocol:
Male Sprague Dawley rats, weighing 190-220 g were bilaterally adrenalectomized and maintained on 0.9% saline solution throughout the experiment. On day 5th and 6th of adrenalectomy, animals were made into different groups, test compounds prepared in cold saline (sonicated for 30 min) were instilled intratracheally 2 doses @3 mg/kg, 24 hrs apart. At 15 hrs after the last treatment, animals were sacrificed and livers were excised and weighed. The glycogen content of the livers was determined by anthrone method. Briefly, a weighed quantity of liver tissue was homogenized with 5% trichloroacetic acid, supernatant mixed with ethanol and kept overnight for precipitation. The glycogen thus extracted was estimated as glucose generated after acid hydrolysis by addition of anthrone reagent at 620 nm. Glycogen content was expressed as mg/100 g liver.

Series [2] deals with liver glycogen deposition. The experiment in a line: Liver glycogen deposition. It counts as in vivo, Male Sprague Dawley rats. As to conditions: 3 mg/kg intratracheal, 2 doses 24 hrs apart, adrenalectomized rats. This is another data set of the same source.
Series [3] can be described thus: Sephadex-induced lung edema. Type of series: in vivo, SD rats. To be noted: Sprague-Dawley, rat, thymus, other: intratracheal; i.t., 24 hrs and 2 hrs prior to Sephadex; read-out: ED50 Thymus involution. As to the method:
(§1) Sephadex® G-200 was prepared in sterile saline (10 mg/ml) and allowed to swell for at least 3 days at room temperature. Test compounds were administered intratracheally at 24 hrs and 2 hrs prior to intratracheal administration of Sephadex® (5 mg/kg) under light ether anesthesia. Vehicle control animals were administered vehicle instead of Sephadex®. At 24 hr after Sephadex® instillation, lung and thymus were excised from individual animals and weighed. Wet weights of lungs and thymus were corrected for 100 g of initial body weight. The percentage increase in lung weight caused by Sephadex® and its inhibitions by the compounds, were calculated. The percentage inhibitions of thymus compared to vehicle control group were also calculated

For series [4], the system named is Sephadex-induced lung edema. The experiment in a line: Sephadex-induced lung edema. It counts as in vivo, SD rats. As to conditions: Rattus norvegicus; i.t., 24 hrs and 2 hrs prior to Sephadex; read-out: ED50 Lung edema inhibition. As to the method: as §1
In a further series the test system is cotton pellet granuloma. The series can be described thus: Cotton pellet granuloma test. Type of series: in vivo, SD rats. As to conditions: 100 mcg/pellet. As to the method: SD rats were used for assessing anti-inflammatory activity of test compound using cotton pellet granuloma method. Sterilized cotton pellets weighing 20 mg were prepared. Test compounds were dissolved in acetone so as to get the required quantity for each cotton pellet in 500 μl. Different pellets were impregnated with 500 μl of acetone to contain required quantity of test compounds and allowed to dry. Vehicle control pellets were impregnated with 500 μl acetone.
Rats were made into different groups. Two cotton pellets were surgically implanted into the scapular region of each rat. On sixth day of such implantation, pellets along with granuloma were taken out. Thymus gland was also separated from each animal and weighed. The pellets with granuloma were dried for 20 hrs at 60° C. and weighed. Mean weights of dry granuloma and thymus, body weight gain/100 g body weights were calculated.

For the next series, the system named is croton oil ear edema. The series can be described thus: Croton oil ear edema. Type of series: in vivo, Mice (male, CD-1). To be noted: for Inhibition of ear edema (%): 1.6 μg, applied to ear 2 hrs before croton oil. As to the method:
Mice (male, CD-1) were made into different groups. A method similar to one reported in the literature was used. Test compounds were dissolved in pyridine-water-acetone (4:2:14) solution 10 μl of this solution of compound or vehicle solution was applied to the left ear of the mice. The right ear of each mouse was applied simultaneously with 10 μl of pyridine: water: acetone (4:2:14) solution. After 2 hrs of compound or vehicle application, 10 μl of croton oil solution was applied to the left ear of all animals. After 6 hr of croton oil treatment the animals were sacrificed; ears were excised and weighed separately.

Series [5] concerns ovalbumin-induced increase in intranasal pressure. The series can be described thus: Ovalbumin-induced increase in intranasal pressure. As to conditions: intranasal instillation 24 hr and 2 hr prior to ovalbumin challenge; FIG. 2. It counts as in vivo, guinea pigs. As to the method:
Animals sensitized with ovalbumin as described above were used for experiments determining intranasal pressure. Intranasal instillation of compound of formula I, fluticasone propionate or placebo was done 24 hr and 2 hr prior to challenge with ovalbumin. The nasopharynx was catheterized with a PE cannula, one end of which was attached to pressure transducer and other to the nebulizer. Ovalbumin (5%) was nebulized into the nasal cavity for 10 min. The changes in intranasal pressure were recorded for following 45 min and differential pressure (dP) was calculated.

Series [6] concerns skin atrophy and systemic side effects. The experiment in a line: Skin atrophy and systemic side effects on topical application. To be noted: dermal, daily 14 days. Type of series: in vivo, Male SD rats. An excerpt: Male SD rats were lightly anesthetized with isoflurane. Bilaterally paired sites were marked on the back, one on each side of the flank. One of the sites was applied with an appropriate dose of compound of the present invention and fluticasone propionate dissolved in the acetone, daily for a period of 14 days. Contralateral site served as solvent treated controls and received acetone. Body weights were monitored on 0-14 days. On day 15, twenty-four hours after the last applications, blood was collected from the tail vein to determine total and differential blood cell count. The animals were euthanized and full-thickness skin from shaved area was punched to get 15 mm diameter plugs. The subcutaneous fat and muscle was removed and the punched plug was weighed. Thymus weights of each animal were also determined as a marker of systemic corticosteroid activity

Series [7] concerns the target T1, Human Glucocorticoid receptor (Homo sapiens, UniProt P04150).
T1 construct: expressed in transfected cells; host or cells: human HeLa cells
T1 sequence (P04150 1-777): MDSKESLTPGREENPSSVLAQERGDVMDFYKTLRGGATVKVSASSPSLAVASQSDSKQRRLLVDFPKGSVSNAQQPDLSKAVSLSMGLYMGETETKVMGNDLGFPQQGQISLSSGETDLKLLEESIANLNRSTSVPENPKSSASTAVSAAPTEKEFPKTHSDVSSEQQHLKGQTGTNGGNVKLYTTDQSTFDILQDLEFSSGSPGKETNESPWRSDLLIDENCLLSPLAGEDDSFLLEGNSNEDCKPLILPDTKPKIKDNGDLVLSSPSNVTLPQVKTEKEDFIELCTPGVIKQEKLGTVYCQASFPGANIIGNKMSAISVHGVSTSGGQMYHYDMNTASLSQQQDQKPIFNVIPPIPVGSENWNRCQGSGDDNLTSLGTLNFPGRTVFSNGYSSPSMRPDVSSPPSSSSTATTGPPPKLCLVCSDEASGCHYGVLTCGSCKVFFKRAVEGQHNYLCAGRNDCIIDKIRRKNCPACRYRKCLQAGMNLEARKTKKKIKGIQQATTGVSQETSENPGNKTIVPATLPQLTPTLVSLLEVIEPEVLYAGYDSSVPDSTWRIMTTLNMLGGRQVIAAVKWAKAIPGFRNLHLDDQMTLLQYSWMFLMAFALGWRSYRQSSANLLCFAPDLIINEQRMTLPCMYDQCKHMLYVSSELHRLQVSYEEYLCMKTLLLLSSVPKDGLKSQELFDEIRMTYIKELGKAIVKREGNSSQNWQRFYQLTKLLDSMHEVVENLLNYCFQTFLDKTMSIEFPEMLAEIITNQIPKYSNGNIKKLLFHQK
The experiment in a line: Human glucocorticoid receptor binding (in vitro), [3H]dexamethasone radioligand. To be noted: at 0.1 μM. As to the method:
The activity of test compounds on glucocorticoid receptor was assessed using radioligand binding assays.
The % inhibition was evaluated using a single concentration of test compound and the corresponding radiolabeled ligand. Results are presented as the percent inhibition of specific binding. The values are average of duplicate determinations for each concentration.

Consider seven compounds from US9458187B2, “Methods for treatment of inflammatory conditions using S-[4-(3-fleuro-3-methylbutyryloxy)but-2-ynyl]6α, 9α-difluoro-17α-(furan-2-yl) carbonyloxy-11β-hydroxy-16α-methyl-3-oxoandrosta-1,4-diene-17β-carbothioate” (Sun Pharma Advanced Research Company Limited, priority 2013, dated 2016).

The term ED50 denotes the midpoint of the dose-response relation. `CCCC1O[C@@H]2C[C@H]3[C@@H]4CCC5=CC(=O)C=C[C@]5(C)[C@H]4[C@@H](O)C[C@]3(C)[C@]2(C(=O)CO)O1` (stereo partly shown) [Budesonide] displayed a Glycogen content in [1] of 552.77 mg/100 g liver. Moreover, in [2], the “% Inhibition of thymus” value was 65.02%. Also, in series [3], the ED50 at 24 h is 0.68 mg/kg.

As for `CC(C)C(=O)OCC(=O)[C@@]12O[C@H](C3CCCCC3)O[C@@H]1C[C@H]1[C@@H]3CCC4=CC(=O)C=C[C@]4(C)[C@H]3[C@@H](O)C[C@@]12C` [Ciclesonide], the Glycogen content in series [1] was 263.96 mg/100 g liver. Besides, the “% Inhibition of thymus” value in series [2] is reported as 61.34%. In series [4], the ED50 worked out at 0.388 mg/kg. In addition, the ED50 at 24 h in series [3] was 3.13 mg/kg. In addition, in the series with cotton pellet granuloma, the “Mean % Inhibition of Granuloma A” value is listed as 63.38% and the “Thymus wt. (% Decrease) B” value was 15.16%.

`C[C@@H]1C[C@H]2[C@@H]3CCC4=CC(=O)C=C[C@]4(C)[C@@]3(F)[C@@H](O)C[C@]2(C)[C@@]1(O)C(=O)CO` [Dexamethasone]: the “Inhibition of ear edema (%)” value in the series on croton oil ear edema was 50.05%.

Compound `CCC(=O)O[C@]1(C(=O)SCF)[C@H](C)C[C@H]2[C@@H]3C[C@H](F)C4=CC(=O)C=C[C@]4(C)[C@@]3(F)[C@@H](O)C[C@@]21C` [Fluticasone propionate] came in with a Glycogen content in [1] of 1514.65 mg/100 g liver. The “Inhibition of ear edema (%)” value in the series with croton oil ear edema amounted to 81.09%. In series [2], the “% Inhibition of thymus” value turned out to be 70.17%. Also, the “inhibition of intranasal pressure” value in series [5] was “equivalent inhibition”. Also, the ED50 in series [4] was 0.086 mg/kg. The ED50 at 24 h in series [3] was 0.36 mg/kg. Besides, in series [6] (6 μg/site), the “% Body Weight Gain” value worked out at 68.1%, the “% Inhibition Lymphocytes” value turned out to be 31.7%, the “% Inhibition Neutrophils” value came to 25.8% and the “% Inhibition Skin weight” value was determined as 25.3%. Besides, in series [6] (6 μg/site), the “% Inhibition Thymus” value came to 2.0% and the “% Inhibition Total leukocyt” value came to 31.4%. Further, in series [6] (18 μg/site), the “% Body Weight Gain” value was 67.4%, the “% Inhibition Lymphocytes” value was determined as 15.9%, the “% Inhibition Neutrophils” value is on record as 24.5% and the “% Inhibition Skin weight” value is 20.8%. In series [6] (18 μg/site), the “% Inhibition Thymus” value was found to be 5.4% and the “% Inhibition Total leukocyt” value is recorded as 17.5%. Also, in [6] (60 μg/site), the “% Body Weight Gain” value is listed as 61.9%, the “% Inhibition Lymphocytes” value turned out to be 15.6%, the “% Inhibition Neutrophils” value stood at 14.5% and the “% Inhibition Skin weight” value is 27.9%. In series [6] (60 μg/site), the “% Inhibition Thymus” value is recorded as 23.0% and the “% Inhibition Total leukocyt” value was determined as 15.2%. Moreover, in series [6] (180 μg/site), the “% Body Weight Gain” value turned out to be 42.5%, the “% Inhibition Lymphocytes” value was 34.1%, the “% Inhibition Neutrophils” value came to 24.6% and the “% Inhibition Skin weight” value was 30.0%. Also, in [6] (180 μg/site), the “% Inhibition Thymus” value is listed as 55.0% and the “% Inhibition Total leukocyt” value is recorded as 32.7%. In the series with cotton pellet granuloma, the “Mean % Inhibition of Granuloma A” value stood at 66.04% and the “Thymus wt. (% Decrease) B” value was 73.56%.

Compound `C[C@@H]1C[C@H]2[C@@H]3CCC4=CC(=O)C=C[C@]4(C)[C@@]3(Cl)[C@@H](O)C[C@]2(C)[C@@]1(OC(=O)c1ccco1)C(=O)CCl` [Mometasone furoate] yielded a Glycogen content in [1] of 1117.32 mg/100 g liver. Moreover, the “% Inhibition of thymus” value in series [2] came to 43.51%.

As to `C[C@@H]1CC2C3C[C@H](F)C4=CC(=O)C=C[C@]4(C)[C@@]3(F)[C@@H](O)C[C@]2(C)[C@@]1(OC(=O)c1ccco1)C(=O)SCC#CCO` (stereo partly drawn) [formula II, S-(4-Hydroxy-but-2-ynyl)6α,9α-difluoro-17α-(furan-2-yl)carbonyloxy-11β-hydroxy-16α-methyl-3-oxoandrosta-1,4-diene-17β-carbothioate], the “potency in topical in vivo anti-inflammatory models such as croton oil ear edema” value in the series on croton oil ear edema (compared with compound of the present invention) was “significantly less potent”.

The term inhibition denotes the share of the control response that was lost under treatment. A lower inhibition goes with little suppression. As to `C[C@@H]1CC2C3C[C@H](F)C4=CC(=O)C=C[C@]4(C)[C@@]3(F)[C@@H](O)C[C@]2(C)[C@@]1(OC(=O)c1ccco1)C(=O)O` (stereo partly shown) [formula III], the inhibition at 0.1 µM in series [7] was 2%.
